Results published in patent publication US7265129B2, “Anti-infective biaryl compounds” (priority 2002, dated 2007).

Key:
[1] = system: B. cereus ATCC 11778; assay: MIC, NCCLS broth microdilution, B. cereus; format: cell-based, Bacillus cereus
Source text: (§1) It vitro biological activity data were collected for a variety of microorganisms, including Bacillus cereus (ATCC 11778), Staphylococcus aureus (ATCC 33591; ATCC 27660, a methicillin resistant strain (MRSA); ATCC 13709, a methicillin sensitive strain (MSSA)), Enterococcus faecalis (ATCC 29212), and Streptococcus pneumoniae (ATCC 49619). Additionally, antifungal activity data were collected for Candida albicans (ATCC 38247).
(§2) Compounds according to this invention were screened for their in vitro activities against selected species of bacteria and fungi. The minimal inhibition concentration (MIC) of these compounds was determined using the National Committee for Clinical Laboratory Standards (NCCLS) broth microdilution assay in microtiter plates, as set forth in: (1) the guidelines of the National Committee for Clinical Laboratory Standards (NCCLS) Document M7-A4 (NCCLS, 1997); (2) the guidelines of the National Committee for Clinical Laboratory Standards (NCCLS) Document M11-A4 (NCCLS, 1997); and (3) the guidelines and reference method of the National Committee for Clinical Laboratory Standards (NCCLS) Document M27-T (NCCLS, 1995). For antifungal assays, the method recommended in Murray, P R., 1995 Manual of Clinical Microbiology (ASM Press, Washington, D.C.), was employed.

[2] = system: C. albicans ATCC 38247; assay: MIC, antifungal assay, C. albicans; format: cell-based, Candida albicans
Source text: as §1, §2

[3] = system: E. faecalis ATCC 29212; assay: MIC, NCCLS broth microdilution, E. faecalis; format: cell-based, Enterococcus faecalis
Source text: as §1, §2

[4] = system: S. aureus ATCC 13709; assay: MIC, NCCLS broth microdilution, S. aureus MSSA; format: cell-based, Staphylococcus aureus; settings: S. aureus ATCC 13709, methicillin sensitive strain (MSSA)
Source text: as §1, §2

[5] = system: S. aureus ATCC 27660; assay: MIC, NCCLS broth microdilution, S. aureus MRSA; format: cell-based, Staphylococcus aureus; settings: S. aureus ATCC 27660, methicillin resistant strain (MRSA)
Source text: as §1, §2

[6] = system: S. aureus ATCC 33591; assay: MIC, NCCLS broth microdilution, S. aureus ATCC 33591; format: cell-based, Staphylococcus aureus
Source text: as §1, §2

[7] = system: S. pneumoniae ATCC 49619; assay: MIC, NCCLS broth microdilution, S. pneumoniae; format: cell-based, Streptococcus pneumoniae
Source text: as §1, §2

Row | Compound | Minimum Inhibitory Concentration (MIC), organism A [1] | Minimum Inhibitory Concentration (MIC), organism B [2] | Minimum Inhibitory Concentration (MIC), organism C [3] | Minimum Inhibitory Concentration (MIC), organism D [4] | Minimum Inhibitory Concentration (MIC), organism E [5] | Minimum Inhibitory Concentration (MIC), organism F [6] | Minimum Inhibitory Concentration (MIC), organism G [7]
1 | Cn1cc(NC(=O)c2cc(NC(=O)c3ccc(Cl)cc3F)cn2CCCN(CCO)CCO)cc1-c1nc2cccnc2[nH]1 [Compound A-44] | + (12 ≦ MIC ≦ 32 μg/mL) | >32 µg/mL | ++ (4 < MIC < 12 μg/mL) | ++ (4 < MIC < 12 μg/mL) | +++ (MIC ≦ 4 μg/mL) | +++ (MIC ≦ 4 μg/mL) | +++ (MIC ≦ 4 μg/mL)
2 | CN(C)CCCn1cc(NC(=O)c2cc3ccccc3cn2)cc1C(=O)Nc1cc(-c2nc3ccncc3[nH]2)n(C)c1 [Compound A-13] | +++ (MIC ≦ 4 μg/mL) | >32 µg/mL | +++ (MIC ≦ 4 μg/mL) | +++ (MIC ≦ 4 μg/mL) | +++ (MIC ≦ 4 μg/mL) | +++ (MIC ≦ 4 μg/mL) | +++ (MIC ≦ 4 μg/mL)
3 | CN(C)CCCn1cc(NC(=O)c2ccc(Cl)cc2F)cc1C(=O)Nc1cc(-c2nc3cncnc3[nH]2)n(C)c1 [Compound A-46] | +++ (MIC ≦ 4 μg/mL) | >32 µg/mL | +++ (MIC ≦ 4 μg/mL) | +++ (MIC ≦ 4 μg/mL) | +++ (MIC ≦ 4 μg/mL) | +++ (MIC ≦ 4 μg/mL) | +++ (MIC ≦ 4 μg/mL)
4 | CN(C)CCCn1cc(NC(=O)c2ccc(F)cc2F)cc1C(=O)Nc1cc(-c2nc3ncccc3[nH]2)n(C)c1 [Compound A-17] | +++ (MIC ≦ 4 μg/mL) | >32 µg/mL | +++ (MIC ≦ 4 μg/mL) | +++ (MIC ≦ 4 μg/mL) | +++ (MIC ≦ 4 μg/mL) | +++ (MIC ≦ 4 μg/mL) | +++ (MIC ≦ 4 μg/mL)
5 | COc1cc(Cl)ccc1C(=O)Nc1cc(C(=O)Nc2cc(-c3nc4ccccc4[nH]3)n(C)c2)n(CCCN(C)C)c1 [Compound A-21] | +++ (MIC ≦ 4 μg/mL) | + (12 ≦ MIC ≦ 32 μg/mL) | +++ (MIC ≦ 4 μg/mL) | ++ (4 < MIC < 12 μg/mL) | +++ (MIC ≦ 4 μg/mL) | – | +++ (MIC ≦ 4 μg/mL)
6 | Cn1cc(NC(=O)c2cc3ccccc3cn2)cc1C(=O)Nc1cc(-c2nc3ccncc3[nH]2)n(C)c1 [Compound A-14] | +++ (MIC ≦ 4 μg/mL) | >32 µg/mL | +++ (MIC ≦ 4 μg/mL) | +++ (MIC ≦ 4 μg/mL) | +++ (MIC ≦ 4 μg/mL) | +++ (MIC ≦ 4 μg/mL) | +++ (MIC ≦ 4 μg/mL)
7 | CN(C)CCCn1cc(NC(=O)c2ccc(F)cc2F)cc1C(=O)Nc1cc(-c2nc3ccncc3[nH]2)n(C)c1 [Compound A-18] | + (12 ≦ MIC ≦ 32 μg/mL) | >32 µg/mL | +++ (MIC ≦ 4 μg/mL) | + (12 ≦ MIC ≦ 32 μg/mL) | +++ (MIC ≦ 4 μg/mL) | +++ (MIC ≦ 4 μg/mL) | +++ (MIC ≦ 4 μg/mL)
8 | Cn1cc(NC(=O)c2cc(NC(=O)c3sccc3Cl)cn2CCC[n+]2ccccc2)cc1-c1nc2ccccc2[nH]1 [Compound A-56] | >32 µg/mL | >32 µg/mL | >32 µg/mL | + (12 ≦ MIC ≦ 32 μg/mL) | + (12 ≦ MIC ≦ 32 μg/mL) | + (12 ≦ MIC ≦ 32 μg/mL) | >32 µg/mL
9 | Cn1cc(NC(=O)c2cc(NC(=O)c3ccc(Cl)cc3F)cn2CCCN2CCCCC2)cc1-c1nc2ccccc2[nH]1 [Compound A-32] | +++ (MIC ≦ 4 μg/mL) | + (12 ≦ MIC ≦ 32 μg/mL) | +++ (MIC ≦ 4 μg/mL) | +++ (MIC ≦ 4 μg/mL) | +++ (MIC ≦ 4 μg/mL) | +++ (MIC ≦ 4 μg/mL) | +++ (MIC ≦ 4 μg/mL)
10 | COc1cc(F)ccc1C(=O)Nc1cc(C(=O)Nc2cc(-c3nc4ccccc4[nH]3)n(C)c2)n(CCCN(C)C)c1 [Compound A-20] | +++ (MIC ≦ 4 μg/mL) | + (12 ≦ MIC ≦ 32 μg/mL) | +++ (MIC ≦ 4 μg/mL) | +++ (MIC ≦ 4 μg/mL) | +++ (MIC ≦ 4 μg/mL) | – | +++ (MIC ≦ 4 μg/mL)
11 | Cn1cc(NC(=O)c2cc(NC(=O)c3ccc(Cl)cc3F)cn2CCCN2CCOCC2)cc1-c1nc2cccnc2[nH]1 [Compound A-40] | +++ (MIC ≦ 4 μg/mL) | >32 µg/mL | +++ (MIC ≦ 4 μg/mL) | +++ (MIC ≦ 4 μg/mL) | +++ (MIC ≦ 4 μg/mL) | +++ (MIC ≦ 4 μg/mL) | +++ (MIC ≦ 4 μg/mL)
12 | CN(C)CCCn1cc(NC(=O)c2cc3ccccc3cn2)cc1C(=O)Nc1cc(-c2nc3ncccc3[nH]2)n(C)c1 [Compound A-12] | +++ (MIC ≦ 4 μg/mL) | >32 µg/mL | +++ (MIC ≦ 4 μg/mL) | +++ (MIC ≦ 4 μg/mL) | +++ (MIC ≦ 4 μg/mL) | +++ (MIC ≦ 4 μg/mL) | +++ (MIC ≦ 4 μg/mL)
13 | CN(C)CCCn1cc(NC(=O)c2sc3ccccc3c2Cl)cc1C(=O)Nc1cc(-c2nc3ccccc3[nH]2)n(C)c1 [Compound A-22] | +++ (MIC ≦ 4 μg/mL) | + (12 ≦ MIC ≦ 32 μg/mL) | ++ (4 < MIC < 12 μg/mL) | ++ (4 < MIC < 12 μg/mL) | ++ (4 < MIC < 12 μg/mL) | – | ++ (4 < MIC < 12 μg/mL)
